Reference: ChEMBL document CHEMBL1909046, “DrugMatrix in vitro pharmacology data”

What was measured:
[1] = DRUGMATRIX: Serotonin (5-Hydroxytryptamine) 5-HT3 radioligand binding (ligand: [3H] GR-65630); format: cell membranes, Membrane; settings: hek293; Not Active = under 50% inhibition at 10 µM
[2] = DRUGMATRIX: Sigma2 radioligand binding (ligand: [3H] Ifenprodil); format: cell membranes, Rattus norvegicus, Wistar, Brain, Membrane; settings: Not Active = under 50% inhibition at 10 µM
[3] = target: T1, Vasoactive intestinal polypeptide receptor 1 (Homo sapiens, UniProt P32241); format: cell membranes, Membrane; settings: ht-29; note: in other assays of this panel Not Active means under 50% inhibition at 10 µM
T1 sequence (P32241 whole entry): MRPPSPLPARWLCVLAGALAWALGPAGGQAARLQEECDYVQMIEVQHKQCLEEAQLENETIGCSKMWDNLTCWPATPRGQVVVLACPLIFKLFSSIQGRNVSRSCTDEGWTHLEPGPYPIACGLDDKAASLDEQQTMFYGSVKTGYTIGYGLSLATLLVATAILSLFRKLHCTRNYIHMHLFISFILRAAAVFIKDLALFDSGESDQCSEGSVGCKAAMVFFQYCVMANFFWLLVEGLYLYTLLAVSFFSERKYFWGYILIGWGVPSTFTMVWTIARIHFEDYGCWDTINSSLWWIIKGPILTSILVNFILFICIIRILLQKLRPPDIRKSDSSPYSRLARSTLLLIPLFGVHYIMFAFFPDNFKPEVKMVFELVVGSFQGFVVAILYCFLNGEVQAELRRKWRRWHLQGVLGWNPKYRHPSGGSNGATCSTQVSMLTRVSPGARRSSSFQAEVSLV

[4] = DRUGMATRIX: GABAA, Chloride Channel, TBOB radioligand binding (ligand: [3H] TBOB); format: cell membranes, Rattus norvegicus, Wistar, Cerebral cortex, Membrane; settings: Not Active = under 50% inhibition at 10 µM
[5] = DRUGMATRIX: Glutamate, Kainate radioligand binding (ligand: [3H] Kainic acid); format: cell membranes, Rattus norvegicus, Wistar, Brain, Membrane; settings: Not Active = under 50% inhibition at 10 µM
Adenosine receptor A1 = target: T2, Adenosine receptor A1 (Homo sapiens, UniProt P30542); format: cell membranes, CHO, Membrane; settings: cho;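 note: radioligand binding assay at the adenosine A1 receptor, with DPCPX serving as the labelled ligand; in other assays of this panel Not Active means under 50% inhibition at 10 µM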
T2 sequence (P30542 whole entry): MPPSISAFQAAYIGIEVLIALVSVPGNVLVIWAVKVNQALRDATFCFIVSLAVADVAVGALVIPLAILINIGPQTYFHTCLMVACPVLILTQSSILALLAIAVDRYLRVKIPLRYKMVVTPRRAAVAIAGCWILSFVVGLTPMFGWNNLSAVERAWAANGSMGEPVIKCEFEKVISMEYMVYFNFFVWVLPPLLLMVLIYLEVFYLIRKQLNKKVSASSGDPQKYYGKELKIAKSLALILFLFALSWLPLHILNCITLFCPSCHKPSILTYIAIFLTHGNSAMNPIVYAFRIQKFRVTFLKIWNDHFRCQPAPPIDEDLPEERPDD

Adenosine receptor A3 = target: T3, Adenosine receptor A3 (Homo sapiens, UniProt P0DMS8); format: cell membranes, CHO-K1, Membrane;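 note: radioligand binding assay with AB-MECA serving as the labeled ligand; in other assays of this panel Not Active means under 50% inhibition at 10 µM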
T3 sequence (P0DMS8 whole entry): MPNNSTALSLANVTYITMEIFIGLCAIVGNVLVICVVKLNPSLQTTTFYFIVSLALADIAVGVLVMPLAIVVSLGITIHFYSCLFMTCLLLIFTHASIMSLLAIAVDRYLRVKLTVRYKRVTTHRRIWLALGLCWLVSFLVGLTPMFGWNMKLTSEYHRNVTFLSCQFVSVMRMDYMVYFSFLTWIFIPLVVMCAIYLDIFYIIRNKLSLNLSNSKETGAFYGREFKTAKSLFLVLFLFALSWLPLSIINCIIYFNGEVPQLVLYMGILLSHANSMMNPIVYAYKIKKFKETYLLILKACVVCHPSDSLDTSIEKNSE

Compound	IC50 [1]	Ki [1]	IC50 [2]	Ki [2]	IC50 [3]	IC50 [4]	Ki [4]	IC50 [5]	Ki [5]	IC50 (Adenosine receptor A1)	IC50 (Adenosine receptor A3; cho-k1)	IC50 (Adenosine receptor A3; read-out: IC50)	Ki (Adenosine receptor A3; read-out: Ki)	IC50 ([2]; read-out: IC50)	Ki ([2]; read-out: Ki)	Ki [3]	Ki (Adenosine receptor A1)	Ki (Adenosine receptor A3; cho-k1)
COCCc1ccc(OCC(O)CNC(C)C)cc1 (centres undefined) [METOPROLOL]	Not Active	Not Active	Not Active	Not Active	Not Active	Not Active	Not Active	Not Active	Not Active	Not Active	Not Active	–	–	–	–	–	–	–
COc1cc2nc(N3CCN(C(=O)C4COc5ccccc5O4)CC3)nc(N)c2cc1OC (centres undefined) [DOXAZOSIN]	Not Active	Not Active	Not Active	Not Active	Not Active	Not Active	Not Active	Not Active	Not Active	Not Active	Not Active	–	–	–	–	–	–	–
NCCCCCC(=O)O [AMINOCAPROIC ACID]	Not Active	Not Active	Not Active	Not Active	Not Active	Not Active	Not Active	Not Active	Not Active	Not Active	Not Active	–	–	–	–	–	–	–
CC(C)(C)NCC(O)c1cc(Cl)c(N)c(Cl)c1 (centres undefined) [CLENBUTEROL]	Not Active	Not Active	Not Active	Not Active	Not Active	Not Active	Not Active	Not Active	Not Active	Not Active	Not Active	–	–	–	–	–	–	–
CCCN1C[C@H](CSC)C[C@@H]2c3cccc4[nH]cc(c34)C[C@H]21 [PERGOLIDE]	Not Active	Not Active	Not Active	Not Active	Not Active	Not Active	Not Active	Not Active	Not Active	Not Active	Not Active	–	–	–	–	–	–	–
CN(C)C(=O)Oc1cc(OC(=O)N(C)C)cc(C(O)CNC(C)(C)C)c1 (centres undefined) [BAMBUTEROL]	Not Active	Not Active	Not Active	Not Active	Not Active	Not Active	Not Active	Not Active	Not Active	Not Active	Not Active	–	–	–	–	–	–	–
c1ccc(Nc2ccc(Nc3ccccc3)cc2)cc1	Not Active	Not Active	Not Active	Not Active	Not Active	Not Active	Not Active	Not Active	Not Active	Not Active	Not Active	–	–	–	–	–	–	–
Cc1cc(C(C#N)c2ccc(Cl)cc2)c(Cl)cc1NC(=O)c1cc(I)cc(I)c1O (centres undefined) [CLOSANTEL]	Not Active	Not Active	Not Active	Not Active	Not Active	Not Active	Not Active	Not Active	Not Active	Not Active	–	96 nM	54 nM	–	–	–	–	–
Cc1ccc2cc3c(ccc4ccccc43)c3c2c1CC3 [3-METHYLCHOLANTHRENE]	Not Active	Not Active	Not Active	Not Active	Not Active	Not Active	Not Active	Not Active	Not Active	Not Active	–	5540 nM	3130 nM	–	–	–	–	–
Nc1nc2c(ncn2CCC(CO)CO)c(=O)[nH]1 [PENCICLOVIR]	Not Active	Not Active	Not Active	Not Active	Not Active	Not Active	Not Active	Not Active	Not Active	Not Active	Not Active	–	–	–	–	–	–	–
CC1Cc2ccccc2N1NC(=O)c1ccc(Cl)c(S(N)(=O)=O)c1 (centres undefined) [INDAPAMIDE]	Not Active	Not Active	Not Active	Not Active	Not Active	Not Active	Not Active	Not Active	Not Active	Not Active	Not Active	–	–	–	–	–	–	–
Cc1ccc(-c2cc(C(F)(F)F)nn2-c2ccc(S(N)(=O)=O)cc2)cc1 [CELECOXIB]	Not Active	Not Active	Not Active	Not Active	Not Active	Not Active	Not Active	Not Active	Not Active	Not Active	–	24600 nM	13900 nM	–	–	–	–	–
CCCCc1nc(Cl)c(CO)n1Cc1ccc(-c2ccccc2-c2nnn[nH]2)cc1 [LOSARTAN]	Not Active	Not Active	Not Active	Not Active	Not Active	Not Active	Not Active	Not Active	Not Active	Not Active	Not Active	–	–	–	–	–	–	–
CC(NC(C)(C)C)C(=O)c1cccc(Cl)c1 (centres undefined) [BUPROPION]	Not Active	Not Active	–	–	Not Active	Not Active	Not Active	Not Active	Not Active	Not Active	Not Active	–	–	2320 nM	1420 nM	–	–	–
COc1cc2c3cc1Oc1cc(ccc1O)C[C@@H]1c4c(cc(OC)c(O)c4Oc4ccc(cc4)C[C@@H]3N(C)CC2)CC[N+]1(C)C.[Cl-]	Not Active	Not Active	Not Active	Not Active	Not Active	Not Active	Not Active	Not Active	Not Active	Not Active	Not Active	–	–	–	–	–	–	–
CCC(C)n1ncn(-c2ccc(N3CCN(c4ccc(OCC5COC(Cn6cncn6)(c6ccc(Cl)cc6Cl)O5)cc4)CC3)cc2)c1=O (centres undefined) [ITRACONAZOLE]	Not Active	Not Active	Not Active	Not Active	Not Active	Not Active	Not Active	Not Active	Not Active	Not Active	Not Active	–	–	–	–	–	–	–
CADMIUM ACETATE	Not Active	Not Active	Not Active	Not Active	Not Active	Not Active	Not Active	Not Active	Not Active	Not Active	Not Active	–	–	–	–	Not Active	Not Active	Not Active
C[C@H]1O[C@@H](O[C@H]2[C@@H](O)C[C@H](O[C@H]3[C@@H](O)C[C@H](O[C@H]4CC[C@@]5(C)[C@H](CC[C@@H]6[C@@H]5C[C@@H](O)[C@]5(C)[C@@H](C7=CC(=O)OC7)CC[C@]65O)C4)O[C@@H]3C)O[C@@H]2C)C[C@H](O)[C@@H]1O [DIGOXIN]	Not Active	Not Active	Not Active	Not Active	Not Active	Not Active	Not Active	Not Active	Not Active	Not Active	Not Active	–	–	–	–	–	–	–
